One may read the IC50 as the concentration that inhibits the measured activity by half.

The target in experiment [1] is T1, SMYD3 (Homo sapiens (Human), UniProt Q9H7B4). Nature of the experiment: SMYD3 cell assay (Trimethyl-MEKK2 In-Cell Western in 293T/17 cells). It counts as cell-based. Conditions: Table 2A; read-out: SMYD3 Cell IC50. The procedure, abridged:
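In-Cell Western ratio of trimethyl-Lys260 MEKK2 to anti-flag signal; percent inhibition from DMSO and maximum-inhibition controls, IC50 by non-linear regression, triplicates.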

Experiment [2] concerns the target T1, SMYD3. Nature of the experiment: SMYD3 biochemical assay (SPA, 3H-SAM methylation of MEKK2 protein substrate). Conditions: Table 2A; read-out: SMYD3 Biochem IC50. The procedure, abridged:
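Tritium incorporation into GST-MEKK2 is counted by scintillation proximity after citric acid bead capture. Native human SMYD3 is preincubated with test compound for 30 min at room temperature at pH 8.0 (Tris-Cl, TCEP, BSG, Tween 20) before 3H-SAM and substrate are added; cold SAM at 100 uM final stops turnover.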

T1 sequence (Q9H7B4 whole entry): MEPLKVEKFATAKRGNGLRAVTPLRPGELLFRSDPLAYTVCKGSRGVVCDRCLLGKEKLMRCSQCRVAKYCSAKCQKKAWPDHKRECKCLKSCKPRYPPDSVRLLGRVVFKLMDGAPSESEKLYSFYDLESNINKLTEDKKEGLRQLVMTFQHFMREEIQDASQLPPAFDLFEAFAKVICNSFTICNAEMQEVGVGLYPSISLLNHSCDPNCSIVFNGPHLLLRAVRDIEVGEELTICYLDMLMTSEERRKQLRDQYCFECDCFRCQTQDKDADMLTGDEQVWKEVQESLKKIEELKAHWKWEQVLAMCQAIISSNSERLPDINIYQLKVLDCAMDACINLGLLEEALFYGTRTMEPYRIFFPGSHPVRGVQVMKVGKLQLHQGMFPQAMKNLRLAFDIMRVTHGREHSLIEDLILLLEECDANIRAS

`O=C(N[C@H]1C[C@H]2CC[C@@H](C1)N2S(=O)(=O)CC1CCN(CCN2CCCCC2)CC1)c1cc(C2CC2)on1` [compound 549, 5-cyclopropyl-N-((1R,3r,5S)-8-(((1-(2-(piperidin-1-yl)ethyl)piperidin-4-yl)methyl)sulfonyl)-8-azabicyclo[3.2.1]octan-3-yl)isoxazole-3-carboxamide]: the values for the IC50 in experiment [1] and in experiment [2] were 312 nM and 2.5 nM, respectively.
As to `CC(C)N1CCC(CS(=O)(=O)N2CC[C@H](NC(=O)c3cc(C4CC4)on3)C[C@@H]2C)CC1` [compound 550, 5-cyclopropyl-N-((2S,4S)-1-(((1-isopropylpiperidin-4-yl)methyl)sulfonyl)-2-methylpiperidin-4-yl)isoxazole-3-carboxamide], the IC50 in experiment [1] worked out at 168 nM; in experiment [2] it was 2.6 nM.
`O=C(N[C@H]1C[C@H]2CC[C@@H](C1)N2S(=O)(=O)CC1CCN(CCC(F)(F)F)CC1)c1cc(C2CC2)on1` [compound 551, 5-cyclopropyl-N-((1R,3r,5S)-8-(((1-(3,3,3-trifluoropropyl)piperidin-4-yl)methyl)sulfonyl)-8-azabicyclo[3.2.1]octan-3-yl)isoxazole-3-carboxamide]: the IC50 in experiment [1] came out at 54.2 nM; in experiment [2] it was 2.9 nM.
Taken in the same sequence, the figures for `NC1CC2(C1)CN(S(=O)(=O)N1[C@@H]3CC[C@H]1C[C@@H](NC(=O)c1cc(C4CC4)on1)C3)C2` [compound 552, N-((1R,3r,5S)-8-((6-amino-2-azaspiro[3.3]heptan-2-yl)sulfonyl)-8-azabicyclo[3.2.1]octan-3-yl)-5-cyclopropylisoxazole-3-carboxamide] were 49.2 nM and 3.1 nM.
With `C[C@H]1C[C@@H](NC(=O)c2cc(C3CC3)on2)CCN1S(=O)(=O)CC1CCN(CCN2CCCCC2)CC1` [compound 553, 5-cyclopropyl-N-((2S,4S)-2-methyl-1-(((1-(2-(piperidin-1-yl)ethyl)piperidin-4-yl)methyl)sulfonyl)piperidin-4-yl)isoxazole-3-carboxamide], the values for the IC50 in experiment [1] and in experiment [2] were 106 nM and 3.4 nM, respectively.
Take `COCCN1CCC(CS(=O)(=O)N2CC[C@H](NC(=O)c3cc(C4CC4)on3)C[C@@H]2C)CC1` [compound 554, 5-cyclopropyl-N-((2S,4S)-1-(((1-(2-methoxyethyl)piperidin-4-yl)methyl)sulfonyl)-2-methylpiperidin-4-yl)isoxazole-3-carboxamide]: the IC50 in experiment [1] amounted to 70.4 nM; in experiment [2], 3.5 nM.
As for `COCCN1CCC(CS(=O)(=O)N2[C@@H]3CC[C@H]2C[C@@H](NC(=O)c2cc(C4CC4)on2)C3)CC1` [compound 556, 5-cyclopropyl-N-((1R,3r,5S)-8-(((1-(2-methoxyethyl)piperidin-4-yl)methyl)sulfonyl)-8-azabicyclo[3.2.1]octan-3-yl)isoxazole-3-carboxamide], the IC50 in experiment [1] came to 55.7 nM; in experiment [2] it was 3.9 nM.
In the same order, the values of `CC(C)CN1CCC(CS(=O)(=O)N2CC[C@H](NC(=O)c3cc(C4CC4)on3)C[C@@H]2C)CC1` [compound 557, 5-cyclopropyl-N-((2S,4S)-1-(((1-isobutylpiperidin-4-yl)methyl)sulfonyl)-2-methylpiperidin-4-yl)isoxazole-3-carboxamide] are 261 nM and 4.2 nM.
As for `C[C@H]1C[C@@H](NC(=O)c2cc(C3CC3)on2)CCN1S(=O)(=O)N1CCNCC1` [compound 558, 5-cyclopropyl-N-((2S,4S)-2-methyl-1-(piperazin-1-ylsulfonyl)piperidin-4-yl)isoxazole-3-carboxamide], the half-maximal inhibitory concentration (IC50) stood at 71.9 nM in experiment [1] and 4.3 nM in experiment [2].
In the same order, the values of `CN1C2CCC1CN(S(=O)(=O)N1[C@@H]3CC[C@H]1C[C@@H](NC(=O)c1cc(C4CC4)on1)C3)C2` [compound 560, 5-cyclopropyl-N-((1R,3r,5S)-8-((8-methyl-3,8-diazabicyclo[3.2.1]octan-3-yl)sulfonyl)-8-azabicyclo[3.2.1]octan-3-yl)isoxazole-3-carboxamide] are 51.6 nM and 4.8 nM.
In the same order, the values of `CNCCNCCCS(=O)(=O)N1[C@@H]2CC[C@H]1C[C@@H](NC(=O)c1cc(C3CC3)on1)C2` [compound 563, 5-cyclopropyl-N-((1R,3r,5S)-8-((3-((2-(methylamino)ethyl)amino)propyl)sulfonyl)-8-azabicyclo[3.2.1]octan-3-yl)isoxazole-3-carboxamide] are 339 nM and 5.3 nM.
In the same order, the values of `NCCNCCCS(=O)(=O)N1[C@@H]2CC[C@H]1C[C@@H](NC(=O)c1cc(C3CC3)on1)C2` [compound 564, N-((1R,3r,5S)-8-((3-((2-aminoethyl)amino)propyl)sulfonyl)-8-azabicyclo[3.2.1]octan-3-yl)-5-cyclopropylisoxazole-3-carboxamide] are 166 nM and 5.3 nM.
`C[C@H]1C[C@@H](NC(=O)c2cc(C3CC3)on2)CCN1S(=O)(=O)N1CC2CCC(C1)N2C` [compound 565, 5-cyclopropyl-N-((2S,4S)-2-methyl-1-((8-methyl-3,8-diazabicyclo[3.2.1]octan-3-yl)sulfonyl)piperidin-4-yl)isoxazole-3-carboxamide]: the figures for the IC50 in experiment [1] and in experiment [2] were 49.4 nM and 6 nM, respectively.
Turning to `C[C@H]1C[C@@H](NC(=O)c2cc(C3CC3)on2)CCN1S(=O)(=O)CCCNCc1ccc(C(F)(F)F)cc1` [compound 566, 5-cyclopropyl-N-((2S,4S)-2-methyl-1-((3-((4-(trifluoromethyl)benzyl)amino)propyl)sulfonyl)piperidin-4-yl)isoxazole-3-carboxamide], the figures for the IC50 in experiment [1] and in experiment [2] were 322 nM and 6.1 nM, respectively.
Turning to `C[C@H]1CN(S(=O)(=O)N2CCC(N)CC2)CC[C@H]1NC(=O)c1cc(C2CC2)on1` [compound 567, N-((3S,4R)-1-((4-aminopiperidin-1-yl)sulfonyl)-3-methylpiperidin-4-yl)-5-cyclopropylisoxazole-3-carboxamide], the IC50 came out at 113 nM in experiment [1] and 6.1 nM in experiment [2].
Taken in the same sequence, the figures for `C[C@@H]1C[C@H](NC(=O)c2cc(C3CC3)on2)CCN1S(=O)(=O)CC1CCN(C)CC1` [compound 568, 5-cyclopropyl-N-((2R,4R)-2-methyl-1-(((1-methylpiperidin-4-yl)methyl)sulfonyl)piperidin-4-yl)isoxazole-3-carboxamide] were 156 nM and 6.3 nM.
Taken in the same sequence, the figures for `O=C(N[C@H]1C[C@H]2CC[C@@H](C1)N2S(=O)(=O)C[C@@H]1CCCNC1)c1cc(C2CC2)on1` [compound 569, 5-cyclopropyl-N-((1R,3R,5S)-8-((((R)-piperidin-3-yl)methyl)sulfonyl)-8-azabicyclo[3.2.1]octan-3-yl)isoxazole-3-carboxamide] were 39.4 nM and 6.6 nM.
In the same order, the values of `C[C@H]1C[C@@H](NC(=O)c2cc(C3CC3)on2)CCN1S(=O)(=O)N1CC2CC1CN2` (stereo partly drawn) [compound 570, N-((2S,4S)-1-((2,5-diazabicyclo[2.2.1]heptan-2-yl)sulfonyl)-2-methylpiperidin-4-yl)-5-cyclopropylisoxazole-3-carboxamide] are 83.9 nM and 6.7 nM.
`O=C(N[C@H]1C[C@H]2CC[C@@H](C1)N2S(=O)(=O)N1CC2CC(C1)N2)c1cc(C2CC2)on1` [compound 571, N-((1R,3r,5S)-8-((3,6-diazabicyclo[3.1.1]heptan-3-yl)sulfonyl)-8-azabicyclo[3.2.1]octan-3-yl)-5-cyclopropylisoxazole-3-carboxamide]: the 50% inhibitory concentration (IC50) in experiment [1] is 99.2 nM; in experiment [2] it was 7.5 nM.
Taken in the same sequence, the figures for `C[C@H]1CN(S(=O)(=O)N2CC[C@H](NC(=O)c3cc(C4CC4)on3)C[C@@H]2C)CCN1` [compound 572, 5-cyclopropyl-N-((2S,4S)-2-methyl-1-(((S)-3-methylpiperazin-1-yl)sulfonyl)piperidin-4-yl)isoxazole-3-carboxamide] were 53.6 nM and 7.8 nM.
Take `C[C@@H]1C[C@H](NC(=O)c2cc(C3CC3)on2)CCN1S(=O)(=O)CC1CCN(Cc2ccccc2)CC1` [compound 573, N-((2R,4R)-1-(((1-benzylpiperidin-4-yl)methyl)sulfonyl)-2-methylpiperidin-4-yl)-5-cyclopropylisoxazole-3-carboxamide]: the IC50 in experiment [1] was determined as 293 nM; in experiment [2], 8 nM.
On to `C[C@H]1C[C@@H](NC(=O)c2cc(C3CC3)on2)CCN1S(=O)(=O)C1CCN(C)CC1` [compound 574, 5-cyclopropyl-N-((2S,4S)-2-methyl-1-((1-methylpiperidin-4-yl)sulfonyl)piperidin-4-yl)isoxazole-3-carboxamide], for which the results for the IC50 in experiment [1] and in experiment [2] were 105 nM and 8 nM, respectively.
Taken in the same sequence, the figures for `O=C(N[C@H]1C[C@H]2CC[C@@H](C1)N2S(=O)(=O)C[C@H]1CCCNC1)c1cc(C2CC2)on1` [compound 575, 5-cyclopropyl-N-((1R,3S,5S)-8-((((S)-piperidin-3-yl)methyl)sulfonyl)-8-azabicyclo[3.2.1]octan-3-yl)isoxazole-3-carboxamide] were 67.4 nM and 8 nM.
On to `C[C@H]1C[C@@H](NC(=O)c2cc(C3CC3)on2)CCN1S(=O)(=O)CCCCN(C)C` [compound 576, 5-cyclopropyl-N-((2S,4S)-1-((4-(dimethylamino)butyl)sulfonyl)-2-methylpiperidin-4-yl)isoxazole-3-carboxamide], for which the IC50 is 106 nM in experiment [1] and 8.1 nM in experiment [2].
Taken in the same sequence, the figures for `C[C@H]1C[C@@H](NC(=O)c2cc(C3CC3)on2)CCN1S(=O)(=O)N1CC2CCC1CN2` (stereo partly drawn) [compound 577, N-((2S,4S)-1-((2,5-diazabicyclo[2.2.2]octan-2-yl)sulfonyl)-2-methylpiperidin-4-yl)-5-cyclopropylisoxazole-3-carboxamide] were 134 nM and 9.2 nM.

For the origin of these results see patent US10577363B2, “Substituted piperidine compounds” (EPIZYME, INC., priority 2014, dated 2020).
